# Source: ChEMBL document CHEMBL1201862, “PubChem BioAssay data set” (2004)
#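 A five-concentration, 48-hour dose response in 96-well plates underlies each endpoint, interpolated linearly between surrounding concentrations. GI50: concentration for 50% inhibition of growth.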 Active and inactive are the calls of the source. Cut-off read from the data, not from the text of the source: active = GI50 up to about 1.1 µM and inactive = higher.
# Tests used:
# Test in all cases: NCI anticancer screen, dose series, 48 h
# HCC 2998 = system: HCC 2998
# OVCAR-8 = system: OVCAR-8
# A498 = system: A498
# HOP-62 = system: HOP-62
# SK-MEL-28 = system: SK-MEL-28
# SNB-75 = system: SNB-75
# MOLT-4 = system: MOLT-4
# SK-OV-3 = system: SK-OV-3
# HCT-15 = system: HCT-15
# IGROV-1 = system: IGROV-1
# SF-268 = system: SF-268
# A549 = system: A549
# SF-295 = system: SF-295
# SNB-19 = system: SNB-19
# SK-MEL-5 = system: SK-MEL-5
# NCI-H226 = system: NCI-H226
# RXF 393 = system: RXF 393
# HOP-92 = system: HOP-92
SMILES,GI50 (HCC 2998),GI50 (OVCAR-8),GI50 (A498),GI50 (HOP-62),GI50 (SK-MEL-28),GI50 (SNB-75),GI50 (MOLT-4),GI50 (SK-OV-3),GI50 (HCT-15),GI50 (IGROV-1),GI50 (SF-268),GI50 (A549),GI50 (SF-295),GI50 (SNB-19),GI50 (SK-MEL-5),GI50 (NCI-H226),GI50 (RXF 393),GI50 (HOP-92)
COc1ccc(/C=C2\Cc3ccccc3C2=O)cc1OC,> 100 µM (inactive),> 100 µM (inactive),> 100 µM (inactive),> 100 µM (inactive),> 100 µM (inactive),> 10 µM (inactive),> 100 µM (inactive),> 100 µM (inactive),> 100 µM,> 100 µM (inactive),45.3 µM (inactive),> 100 µM (inactive),60.8 µM (inactive),> 100 µM (inactive),63.4 µM (inactive),–,–,–
COc1ccc(-c2cc(O)c3cc4c(cc3n2)OCO4)cc1,> 100 µM (inactive),> 100 µM (inactive),> 100 µM (inactive),61 µM (inactive),> 100 µM (inactive),29.8 µM (inactive),> 100 µM (inactive),–,> 100 µM,> 100 µM (inactive),> 100 µM (inactive),> 100 µM (inactive),63.4 µM (inactive),55.5 µM (inactive),> 100 µM (inactive),29 µM (inactive),38.4 µM (inactive),–
Nc1nc(N)c(CCCCc2ccccc2)c(C=O)n1,26.5 µM (inactive),16.3 µM (inactive),> 100 µM (inactive),> 100 µM (inactive),15.9 µM (inactive),12.7 µM (inactive),–,31.1 µM (inactive),14.7 µM,17.8 µM (inactive),18.8 µM (inactive),41.4 µM (inactive),22 µM (inactive),16.1 µM (inactive),17 µM (inactive),19.4 µM (inactive),–,–
COC(=O)C(Cc1nc2ccccc2nc1O)/C(=N\NC(C)(C)C)C(=O)Nc1c(C)cc(Br)cc1C (centres undefined),73.1 µM (inactive),21.9 µM (inactive),12.7 µM (inactive),35 µM (inactive),20 µM (inactive),–,1.5 µM (inactive),50.5 µM (inactive),23.4 µM,36.3 µM (inactive),22.3 µM (inactive),50.9 µM (inactive),35.3 µM (inactive),31.1 µM (inactive),18.3 µM (inactive),17.6 µM (inactive),–,18.7 µM (inactive)
CCC1=CCN(c2cc(C)ccn2)OC1c1ccccc1 (centres undefined),33.3 µM (inactive),53.1 µM (inactive),–,> 100 µM (inactive),23.9 µM (inactive),45.6 µM (inactive),34.5 µM (inactive),71.3 µM (inactive),21.8 µM,67.8 µM (inactive),86.5 µM (inactive),40.1 µM (inactive),39.3 µM (inactive),81.3 µM (inactive),–,> 100 µM (inactive),29.3 µM (inactive),–
CC(N)Cc1ccc(F)cc1 (centres undefined),> 100 µM (inactive),> 100 µM (inactive),> 100 µM (inactive),> 100 µM (inactive),> 100 µM (inactive),> 100 µM (inactive),> 100 µM (inactive),> 100 µM (inactive),> 100 µM,> 100 µM (inactive),> 100 µM (inactive),> 100 µM (inactive),> 100 µM (inactive),> 100 µM (inactive),> 100 µM (inactive),> 100 µM (inactive),> 100 µM (inactive),> 100 µM (inactive)
O=C1NCCS(=O)(=O)N[C@@H](CC2=CC=CCC2)C(=O)N2CCCC12 (some centres undefined),> 100 µM (inactive),> 100 µM (inactive),> 100 µM (inactive),> 100 µM (inactive),> 100 µM (inactive),> 100 µM (inactive),> 100 µM (inactive),> 100 µM (inactive),> 100 µM,> 100 µM (inactive),> 100 µM (inactive),> 100 µM (inactive),> 100 µM (inactive),> 100 µM (inactive),> 100 µM (inactive),> 100 µM (inactive),> 100 µM (inactive),> 100 µM (inactive)
CC1(C2CCC3(C)C(C2)C3Sc2ccccc2)OCCO1 (centres undefined),20.1 µM (inactive),31.8 µM (inactive),18.8 µM (inactive),20.2 µM (inactive),24.9 µM (inactive),54.6 µM (inactive),18 µM (inactive),33 µM (inactive),31.9 µM,35.7 µM (inactive),34.8 µM (inactive),24.2 µM (inactive),21.5 µM (inactive),27 µM (inactive),17.3 µM (inactive),–,15 µM (inactive),23.3 µM (inactive)
Cc1ccc(C2=Nc3ccccc3NC(=O)C2)cc1,> 100 µM (inactive),79.8 µM (inactive),> 100 µM (inactive),> 100 µM (inactive),> 100 µM (inactive),43.8 µM (inactive),> 100 µM (inactive),> 100 µM (inactive),> 100 µM,> 100 µM (inactive),> 100 µM (inactive),> 100 µM (inactive),> 100 µM (inactive),> 100 µM (inactive),> 100 µM (inactive),12.7 µM (inactive),> 100 µM (inactive),26.9 µM (inactive)
CCNC(=O)OCc1c(COC(=O)NCC)c(-c2ccc(Cl)c(Cl)c2)n2c1CCC2,14.3 µM (inactive),12.6 µM (inactive),–,7.33 µM (inactive),14.9 µM (inactive),11.1 µM (inactive),5.06 µM (inactive),–,13.6 µM,9.31 µM (inactive),6.55 µM (inactive),18.5 µM (inactive),11.7 µM (inactive),21.5 µM (inactive),14.9 µM (inactive),1.75 µM (inactive),–,5.5 µM (inactive)
N#CC1(Cc2ccccc2)CCCCN1C(=O)c1ccccc1 (centres undefined),> 100 µM (inactive),> 100 µM (inactive),> 100 µM (inactive),> 100 µM (inactive),> 100 µM (inactive),> 100 µM (inactive),74.6 µM (inactive),> 100 µM (inactive),> 100 µM,> 100 µM (inactive),> 100 µM (inactive),> 100 µM (inactive),> 100 µM (inactive),> 100 µM (inactive),> 100 µM (inactive),–,> 100 µM (inactive),> 100 µM (inactive)
CC1OC(n2cc(F)c(=O)[nH]c2=O)C=CC1=O (centres undefined),17.8 µM (inactive),20.7 µM (inactive),16.7 µM (inactive),38.8 µM (inactive),17.7 µM (inactive),17.9 µM (inactive),24.2 µM (inactive),29 µM (inactive),20.3 µM,29.8 µM (inactive),19.6 µM (inactive),> 100 µM (inactive),17.3 µM (inactive),17.4 µM (inactive),17.4 µM (inactive),24.7 µM (inactive),15.5 µM (inactive),17.7 µM (inactive)
CO/N=C/c1cc(OC)c(OC)c(OC)c1,> 100 µM (inactive),> 100 µM (inactive),> 100 µM (inactive),> 100 µM (inactive),> 100 µM (inactive),> 100 µM (inactive),> 100 µM (inactive),> 100 µM (inactive),> 100 µM,> 100 µM (inactive),> 100 µM (inactive),> 100 µM (inactive),> 100 µM (inactive),> 100 µM (inactive),> 100 µM (inactive),> 100 µM (inactive),–,> 100 µM (inactive)
CCOC(=O)[C@H](Cc1ccccc1)NC(=O)c1nc[nH]c1[N+](=O)[O-],> 100 µM (inactive),> 100 µM (inactive),> 100 µM (inactive),> 100 µM (inactive),> 100 µM (inactive),> 100 µM (inactive),> 100 µM (inactive),> 100 µM (inactive),> 100 µM,> 100 µM (inactive),> 100 µM (inactive),> 100 µM (inactive),> 100 µM (inactive),> 100 µM (inactive),> 100 µM (inactive),> 100 µM (inactive),–,–
CCOC(=O)CP(=S)(S)c1ccccc1 (centres undefined),–,> 100 µM (inactive),> 100 µM (inactive),> 100 µM (inactive),> 100 µM (inactive),–,> 100 µM (inactive),> 100 µM (inactive),–,–,> 100 µM (inactive),> 100 µM (inactive),> 10 µM (inactive),> 100 µM (inactive),> 100 µM (inactive),> 100 µM (inactive),> 100 µM (inactive),> 100 µM (inactive)
C=CC1[C@H]2COC(C)(C)O[C@@H]2CC(=O)C1(C)C (some centres undefined),> 100 µM (inactive),> 100 µM (inactive),–,> 100 µM (inactive),> 100 µM (inactive),> 100 µM (inactive),–,–,–,–,> 100 µM (inactive),> 100 µM (inactive),> 100 µM (inactive),> 100 µM (inactive),–,> 100 µM (inactive),94.8 µM (inactive),> 100 µM (inactive)
CC1(C)CCC[C@@]2(C)C1CC[C@H]1CC(O)C3(C)CCC12C3 (some centres undefined),19.8 µM (inactive),18.5 µM (inactive),–,19.1 µM (inactive),18.4 µM (inactive),22.9 µM (inactive),22 µM (inactive),18.3 µM (inactive),18.2 µM,22.2 µM (inactive),19.2 µM (inactive),18.7 µM (inactive),–,18 µM (inactive),17.5 µM (inactive),20 µM (inactive),13.3 µM (inactive),15.6 µM (inactive)
C[C@@H]1C[C@H]2[C@@H]3CCC4=CC(=O)C=C[C@]4(C)[C@@]3(F)[C@@H](O)C[C@]2(C)[C@@]1(O)C(=O)CO [DEXAMETHASONE],–,> 100 µM (inactive),–,> 100 µM (inactive),> 100 µM (inactive),–,95.1 µM (inactive),> 100 µM (inactive),> 100 µM,> 100 µM (inactive),–,> 100 µM (inactive),–,–,> 100 µM (inactive),> 100 µM (inactive),–,> 100 µM (inactive)
